Test results taken from patent US20230346803A1, “COMPOSITIONS OF BERBERINE URSODEOXYCHOLATE AND METHODS THEREOF FOR TREATING PRIMARY SCLEROSING CHOLANGITIS” (SHENZHEN HIGHTIDE BIOPHARMACEUTICAL LTD., priority 2021, published 2023).

System: adult subjects with PSC
Test: Phase 2, multicenter, dose-ranging, 18-week, placebo-controlled study of BUDCA in PSC
Format: in vivo, human
Details: for Share of subjects achieving a 25% reduction in ALP: 0 subjects on placebo; for Percent change from Baseline in GGT at Week 6: all subjects
Procedure: A Phase 2, multicenter, dose-ranging, 18-week study was conducted comparing two dose regimens of BUDCA (500 mg BID and 1,000 mg BID) to placebo in adult subjects with PSC.
BUDCA drug product (also herein referred to as HTD1801) is a film-coated tablet containing 250 mg of berberine ursodeoxycholate.
The clinical study design consisted of an initial randomized, double-blind, placebo-and dose-controlled, parallel-group period (Period 1), followed by a dose-controlled extension period (Period 2), which is followed by a placebo-controlled randomized withdrawal period (Period 3). • Period 1: Subjects were randomized to receive BID doses of 500 mg, 1,000 mg, or matching placebo for 6 weeks. The primary analysis was based on this initial 6-week randomized, double-blind, placebo- and dose-controlled, parallel-group period. • Period 2: Subjects previously randomized to 500 mg BID or 1,000 mg BID continued for 6 more weeks at that previous dose, while subjects previously randomized to placebo were re-randomized to receive 6 weeks of either 500 mg BID or 1,000 mg BID. • Period 3: Subjects were re-randomized to either continue on the active treatment they had received in Period 2 or be assigned to placebo.
Patients with a known diagnosis of PSC based upon magnetic resonance cholangiopancreatography (MRCP) or endoscopic retrograde cholangiopancreatography (ERCP) findings were eligible for inclusion in this study. To be eligible for randomization into the study, serum ALP levels at screening had to be elevated at least above 1.5 times the upper limit of normal (ULN).
The primary endpoint was the absolute change in ALP from Baseline to Week 6 (Period 1).
For this study, 88 subjects with PSC were screened, 59 were randomized, 55 received at least 1 dose of study drug (safety population), and 54 had at least 1 post-dose efficacy assessment (modified intent-to-treat (mITT) population).
All statistical tests were two-sided with an alpha level of 0.05. The statistical analyses were conducted with the SAS® System version 9.4 or higher. All analyses were subject to formal verification procedures.

[1] = Baseline ALP <3x ULN, 500 mg BID (n=8)
[2] = Baseline ALP <3x ULN, 1,000 mg BID (n=16)
[3] = Baseline ALP ≥3x ULN, 500 mg BID (n=7)
[4] = Baseline ALP ≥3x ULN, 1,000 mg BID (n=8)

## COc1ccc2cc3[n+](cc2c1OC)CCc1cc2c(cc1-3)OCO2.C[C@H](CCC(=O)[O-])[C@H]1CC[C@H]2[C@@H]3[C@@H](O)C[C@@H]4C[C@H](O)CC[C@]4(C)[C@H]3CC[C@]12C [BUDCA, berberine ursodeoxycholate]
500 mg BID, prior UDCA use, week 6
  Share of subjects achieving a 25% reduction in ALP: 33%
500 mg BID
  Percent change from Baseline in GGT at Week 6: -21%
500 mg BID, subjects without prior UDCA use
  Percent change in GGT at Week 6: -42%
1,000 mg BID
  Percent change from Baseline in GGT at Week 6: -40%
1,000 mg BID, subjects without prior UDCA use
  Percent change in GGT at Week 6: -67%
[1]
  Mean (SD) change from Baseline to Week 6 in ALP: -13 (118) U/L
  Mean (SD) change from Baseline to Week 6 in ALT: -63 (104) U/L
  Mean (SD) change from Baseline to Week 6 in AST: -18 (41) U/L
[2]
  Mean (SD) change from Baseline to Week 6 in ALP: -20 (106) U/L
  Mean (SD) change from Baseline to Week 6 in ALT: -30 (72) U/L
  Mean (SD) change from Baseline to Week 6 in AST: -14 (26) U/L
[3]
  Mean (SD) change from Baseline to Week 6 in ALP: -138 (134) U/L
  Mean (SD) change from Baseline to Week 6 in ALT: -48 (74) U/L
  Mean (SD) change from Baseline to Week 6 in AST: -37 (49) U/L
[4]
  Mean (SD) change from Baseline to Week 6 in ALP: -185 (143) U/L
  Mean (SD) change from Baseline to Week 6 in ALT: -80 (56) U/L
  Mean (SD) change from Baseline to Week 6 in AST: -37 (39) U/L
Period 1, both doses, compared to an increase in the placebo group
  Absolute change in ALP from Baseline to Week 6 (primary efficacy endpoint): clinically meaningful and statistically significant decrease in ALP
Period 3, pooled active-to-active groups, depending on the week examined
  Number of subjects achieving ALP <1.5 x ULN: 4-6
Subject 18-003, 1,000 mg BID, Week 18
  Reduction of GGT: ~ 10%
Subject 18-003, 1,000 mg BID, after Week 12 through Week 18, baseline 1.8-fold ULN, prior UDCA 15 mg/kg
  ALP relative to ULN: below 1.5 fold ULN
Subject 23-004, 1,000 mg BID, Week 18
  Reduction of GGT: ~50%
Subject 23-004, 1,000 mg BID, Week 18, baseline 2.6-fold ULN, prior UDCA 12 mg/kg
  ALP relative to ULN: below 1.6 fold ULN
Week 6
  Response rate with 1,000 mg BID compared with 500 mg BID, each efficacy endpoint: ~ 2 fold
Active treatment, subjects without prior UDCA use
  Share of subjects achieving a 25% reduction in ALP: Over half
All treatments throughout the study
  Mean total bilirubin, albumin, and platelets: remained stable and within normal range
Subjects with PSC, 500 mg BID and 1,000 mg BID, up to 18 weeks
  Safety and tolerability: safe and generally well tolerated
